From US12685726B2, “Sulfoximines as inhibitors of NaV1.8” (Gruenenthal GmbH, priority 2022, dated 2026)

Target: T1, human NaV 1.8 (Homo sapiens, UniProt Q9Y5Y9)
T1 construct: expressed in transfected cells; host or cells: HEK (recombinant cell line)
Assay: Automated whole-cell patch clamp (Qube384) voltage-clamp recordings of sodium currents in HEK-NaV1.8 cell line
Assay type: cell-based
Conditions: read-out: Potency category (human NaV 1.8 IC50)
Procedure, shortened: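 HEK cells expressing NaV1.8 with b3, whole-cell automated voltage clamp at room temperature or 19° C.; CsF-based internal, pH 7.4 external. State-dependent (−120 mV, V1/2 4 s, −10 mV test pulses) and 10/20 Hz 40-pulse protocols; ~12 min compound, vehicle-corrected, IC50 by 4-parameter logistic fit.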

T1 sequence (Q9Y5Y9 whole entry): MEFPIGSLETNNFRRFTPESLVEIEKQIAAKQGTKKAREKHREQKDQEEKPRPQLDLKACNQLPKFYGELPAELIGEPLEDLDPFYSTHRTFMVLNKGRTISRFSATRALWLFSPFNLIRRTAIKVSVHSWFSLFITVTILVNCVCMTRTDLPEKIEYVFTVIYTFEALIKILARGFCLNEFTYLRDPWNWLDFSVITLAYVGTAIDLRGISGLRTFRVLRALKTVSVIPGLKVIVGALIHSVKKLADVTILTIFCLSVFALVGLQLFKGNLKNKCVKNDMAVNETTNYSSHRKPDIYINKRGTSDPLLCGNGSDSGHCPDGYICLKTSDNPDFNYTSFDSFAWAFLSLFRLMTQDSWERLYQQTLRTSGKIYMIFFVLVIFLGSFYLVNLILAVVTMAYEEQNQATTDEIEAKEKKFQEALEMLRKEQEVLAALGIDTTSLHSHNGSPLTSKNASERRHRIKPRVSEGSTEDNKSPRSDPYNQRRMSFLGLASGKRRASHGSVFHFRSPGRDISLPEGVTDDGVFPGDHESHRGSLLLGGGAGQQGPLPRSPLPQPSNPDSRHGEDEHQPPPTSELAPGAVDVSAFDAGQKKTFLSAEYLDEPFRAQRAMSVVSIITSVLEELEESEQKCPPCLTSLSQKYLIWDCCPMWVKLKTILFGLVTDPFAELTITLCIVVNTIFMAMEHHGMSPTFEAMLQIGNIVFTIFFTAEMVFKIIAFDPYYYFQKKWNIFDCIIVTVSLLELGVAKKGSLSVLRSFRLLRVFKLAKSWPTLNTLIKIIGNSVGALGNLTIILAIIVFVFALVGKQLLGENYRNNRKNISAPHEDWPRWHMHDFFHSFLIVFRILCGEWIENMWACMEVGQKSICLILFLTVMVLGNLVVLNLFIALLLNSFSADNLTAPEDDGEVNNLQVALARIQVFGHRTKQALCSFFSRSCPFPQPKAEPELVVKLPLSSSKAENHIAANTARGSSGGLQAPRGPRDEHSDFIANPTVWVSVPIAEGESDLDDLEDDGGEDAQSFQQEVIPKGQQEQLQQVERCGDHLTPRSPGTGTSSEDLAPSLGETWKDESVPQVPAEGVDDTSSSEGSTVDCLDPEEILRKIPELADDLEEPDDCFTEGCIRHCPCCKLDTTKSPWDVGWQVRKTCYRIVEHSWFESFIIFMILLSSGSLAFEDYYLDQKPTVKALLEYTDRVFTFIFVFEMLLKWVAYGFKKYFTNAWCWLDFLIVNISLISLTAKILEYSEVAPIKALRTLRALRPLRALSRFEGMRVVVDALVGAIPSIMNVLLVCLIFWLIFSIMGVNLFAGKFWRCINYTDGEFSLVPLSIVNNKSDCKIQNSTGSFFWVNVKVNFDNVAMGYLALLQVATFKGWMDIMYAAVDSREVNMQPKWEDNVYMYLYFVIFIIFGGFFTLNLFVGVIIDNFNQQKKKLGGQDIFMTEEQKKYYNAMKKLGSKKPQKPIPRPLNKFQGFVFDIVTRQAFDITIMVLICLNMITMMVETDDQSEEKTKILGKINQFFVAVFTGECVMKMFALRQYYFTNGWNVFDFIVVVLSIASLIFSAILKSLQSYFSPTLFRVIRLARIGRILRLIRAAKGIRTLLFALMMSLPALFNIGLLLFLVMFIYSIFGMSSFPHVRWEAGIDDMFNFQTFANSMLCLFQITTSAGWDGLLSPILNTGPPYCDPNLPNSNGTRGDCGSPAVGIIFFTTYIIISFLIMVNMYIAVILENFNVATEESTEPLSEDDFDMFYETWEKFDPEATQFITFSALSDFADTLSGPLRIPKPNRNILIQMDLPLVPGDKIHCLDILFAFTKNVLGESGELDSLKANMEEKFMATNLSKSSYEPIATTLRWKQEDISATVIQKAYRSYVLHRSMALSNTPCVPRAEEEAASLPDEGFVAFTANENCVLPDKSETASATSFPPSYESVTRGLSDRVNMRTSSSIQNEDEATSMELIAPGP

CS(=N)(=O)c1cc(NC(=O)c2c(C(F)(F)F)c(C3CC3)nn2CC2C(F)(F)C23CCC3)ccn1 (single isomer, unassigned) [Example 136b, 3-Cyclopropyl-1-((2,2-difluorospiro[2.3]hexan-1-yl)methyl)-N-(2-(S-methylsulfonimidoyl)pyridin-4-yl)-4-(trifluoromethyl)-1H-pyrazole-5-carboxamide]
IC50: ≤ 0.1 µM

CS(=N)(=O)c1cc(NC(=O)c2c(C(F)(F)F)c(C34CC(C3)C4)nn2CC2C[C@@H]2C(F)F)ccn1 (stereo in doubt) [Example 146, 3-(Bicyclo[1.1.1]pentan-1-yl)-1-(((trans)-2-(difluoromethyl)cyclopropyl)methyl)-N-(2-(S-methylsulfonimidoyl)pyridin-4-yl)-4-(trifluoromethyl)-1H-pyrazole-5-carboxamide]
IC50: ≤ 0.1 µM

CC1(Cn2nc(C3CC3)c(C(F)(F)F)c2C(=O)Nc2cncc(S(C)(=N)=O)c2)CC(F)(F)C1 (single isomer, unassigned) [Example 46a, 3-cyclopropyl-1-((3,3-difluoro-1-methylcyclobutyl)methyl)-N-(5-(S-methylsulfonimidoyl)pyridin-3-yl)-4-(trifluoromethyl)-1H-pyrazole-5-carboxamide]
IC50: ≤ 0.1 µM

CC1(Cn2nc(C3(C(F)F)CC3)c(C(F)(F)F)c2C(=O)Nc2ccnc(S(C)(=N)=O)c2)CC(F)(F)C1 (single isomer, unassigned) [Example 145b, 1-((3,3-Difluoro-1-methylcyclobutyl)methyl)-3-(1-(difluoromethyl)cyclopropyl)-N-(2-(S-methylsulfonimidoyl)pyridin-4-yl)-4-(trifluoromethyl)-1H-pyrazole-5-carboxamide]
IC50: ≤ 0.1 µM

CC1(Cn2nc(C(C)(C)F)c(C(F)(F)F)c2C(=O)Nc2ccnc(S(C)(=N)=O)c2)CC(F)(F)C1 (single isomer, unassigned) [Example 148b, 1-((3,3-Difluoro-1-methylcyclobutyl)methyl)-3-(2-fluoropropan-2-yl)-N-(2-(S-methylsulfonimidoyl)pyridin-4-yl)-4-(trifluoromethyl)-1H-pyrazole-5-carboxamide]
IC50: ≤ 0.1 µM

CC1(Cn2nc(C3CC3)c(C(F)(F)F)c2C(=O)Nc2ccnc(S(C)(=O)=NC#N)c2)CC(F)(F)C1 (single isomer, unassigned) [Example 142a, N-(2-(N-Cyano-S-methylsulfonimidoyl)pyridin-4-yl)-3-cyclopropyl-1-((3,3-difluoro-1-methylcyclobutyl)methyl)-4-(trifluoromethyl)-1H-pyrazole-5-carboxamide]
IC50: ≤ 0.1 µM

CC1(Cn2nc(C34CC(F)(C3)C4)c(C(F)F)c2C(=O)Nc2ccc(F)c(S(C)(=N)=O)c2)CC(F)(F)C1 (single isomer, unassigned) [Example 138a, 1-((3,3-Difluoro-1-methylcyclobutyl)methyl)-4-(difluoromethyl)-N-(4-fluoro-3-(S-methylsulfonimidoyl)phenyl)-3-(3-fluorobicyclo[1.1.1]pentan-1-yl)-1H-pyrazole-5-carboxamide]
IC50: ≤ 0.1 µM

CC1(Cn2nc(C3CC(F)(F)C3)c(C(F)(F)F)c2C(=O)Nc2ccnc(S(C)(=N)=O)c2)CC(F)(F)C1 (single isomer, unassigned) [Example 57b, 1-((3,3-Difluoro-1-methylcyclobutyl)methyl)-3-(3,3-difluorocyclobutyl)-N-(2-(S-methylsulfonimidoyl)pyridin-4-yl)-4-(trifluoromethyl)-1H-pyrazole-5-carboxamide]
IC50: ≤ 0.1 µM

CS(=N)(=O)c1cc(NC(=O)c2c(C(F)(F)F)c(C3CC3)nn2CC2C(F)(F)C23CCC3)ccn1 (single isomer, unassigned) [Example 136d, 3-Cyclopropyl-1-((2,2-difluorospiro[2.3]hexan-1-yl)methyl)-N-(2-(S-methylsulfonimidoyl)pyridin-4-yl)-4-(trifluoromethyl)-1H-pyrazole-5-carboxamide]
IC50: ≤ 0.1 µM

CC1(Cn2nc(C34CC(C3)C4)c(C(F)(F)F)c2C(=O)Nc2ccnc(S(C)(=N)=O)c2)CC(F)(F)C1 (single isomer, unassigned) [Example 58a, 3-(Bicyclo[1.1.1]pentan-1-yl)-1-((3,3-difluoro-1-methylcyclobutyl)methyl)-N-(2-(S-methylsulfonimidoyl)pyridin-4-yl)-4-(trifluoromethyl)-1H-pyrazole-5-carboxamide]
IC50: ≤ 0.1 µM

Cc1c(C(C)(F)F)nn(CC2CCC(F)(F)CC2)c1C(=O)Nc1ccnc(S(C)(=N)=O)c1 (single isomer, unassigned) [Example 9b, 1-((4,4-difluorocyclohexyl)methyl)-3-(1,1-difluoroethyl)-4-methyl-N-(2-(S-methylsulfonimidoyl)pyridin-4-yl)-1H-pyrazole-5-carboxamide]
IC50: ≤ 0.1 µM

COC1(c2nn(CC3(C)CC(F)(F)C3)c(C(=O)Nc3ccnc(S(C)(=N)=O)c3)c2C(F)(F)F)CC1 (single isomer, unassigned) [Example 71a, 1-((3,3-difluoro-1-methylcyclobutyl)methyl)-3-(1-methoxycyclopropyl)-N-(2-(S-methylsulfonimidoyl)pyridin-4-yl)-4-(trifluoromethyl)-1H-pyrazole-5-carboxamide]
IC50: 0.1 to 1 µM

Cc1c(C(C)(F)F)nn(CC2CCC(F)(F)CC2)c1C(=O)Nc1ccnc(S(C)(=N)=O)c1 (single isomer, unassigned) [Example 9a, 1-((4,4-difluorocyclohexyl)methyl)-3-(1,1-difluoroethyl)-4-methyl-N-(2-(S-methylsulfonimidoyl)pyridin-4-yl)-1H-pyrazole-5-carboxamide]
IC50: ≤ 0.1 µM

CS(=N)(=O)c1cc(NC(=O)c2c(C(F)(F)F)c(C3CC3)nn2CC23CC(C(F)(F)F)(C2)C3)ccn1 (single isomer, unassigned) [Example 23b, 3-cyclopropyl-N-(2-(S-methylsulfonimidoyl)pyridin-4-yl)-4-(trifluoromethyl)-1-((3-(trifluoromethyl)bicyclo[1.1.1]pentan-1-yl)methyl)-1H-pyrazole-5-carboxamide]
IC50: ≤ 0.1 µM

CC1(Cn2nc(C3CC3)c(C(F)(F)F)c2C(=O)Nc2cccc(S(C)(=N)=O)c2)CC(F)(F)C1 (single isomer, unassigned) [Example 45a, 3-cyclopropyl-1-((3,3-difluoro-1-methylcyclobutyl)methyl)-N-(3-(S-methylsulfonimidoyl)phenyl)-4-(trifluoromethyl)-1H-pyrazole-5-carboxamide]
IC50: ≤ 0.1 µM

CS(=N)(=O)c1cc(NC(=O)c2c(C(F)(F)F)c(C3CC3)nn2CC23CC(CC2(F)F)C3)ccn1 (single isomer, unassigned) [Example 103a, 3-cyclopropyl-1-((2,2-difluorobicyclo[2.1.1]hexan-1-yl)methyl)-N-(2-(S-methylsulfonimidoyl)pyridin-4-yl)-4-(trifluoromethyl)-1H-pyrazole-5-carboxamide]
IC50: ≤ 0.1 µM

CC1(Cn2nc(C34CC(C3)C4)c(C(F)F)c2C(=O)Nc2ccnc(S(C)(=N)=O)c2)CC(F)(F)C1 (single isomer, unassigned) [Example 137a, 3-(Bicyclo[1.1.1]pentan-1-yl)-1-((3,3-difluoro-1-methylcyclobutyl)methyl)-4-(difluoromethyl)-N-(2-(S-methylsulfonimidoyl)pyridin-4-yl)-1H-pyrazole-5-carboxamide]
IC50: ≤ 0.1 µM
